Values of other authors in patent US20050226814A1, “Diagnostic method and kit for implantation of a sustained release drug-delivery implant with a steroid” (Bausch & Lomb Incorporated, priority 2004, published 2005).

Assays:
[1] = test system: proliferative vitreoretinopathy; conditions: injected into the sub-conjuctival area
retinochoroid disorders = conditions: injection into the eye of a patient

C[C@]12CCC(=O)C=C1CC[C@@H]1[C@@H]2[C@@H](O)C[C@@]2(C)[C@H]1CC[C@]2(O)C(=O)CO [hydrocortisone]
effect on proliferative vitreoretinopathy [1]: inhibited proliferative vitreoretinopathy

C[C@]12C=CC(=O)C=C1CC[C@H]1[C@@H]3C[C@@H](O)[C@](O)(C(=O)CO)[C@@]3(C)C[C@H](O)[C@@]12F [trimacinolone, triamcinolone]
long-term effect (retinochoroid disorders): did not have a significantly long-term effect
